Legend:
[1] = Gastric retention of swellable acamprosate tablet in dog model, induction of fed mode with alpha-lipoic acid; assay type: in vivo; settings: of 800 mg swellable acamprosate tablet after 125 mg alpha-lipoic acid given 15 minutes before; four beagle dogs
[2] = in vivo; cited from earlier work
[3] = test system: abnormal movements; experiment: Transgenic mouse models with movement disorders and hyperglutamatergic states; assay type: in vivo; settings: steadily-maintained blood level; Per2(Brdm1) deletion or ENT1(-/-) mice
[4] = test system: tardive dyskinesia; experiment: Clinical cases: acamprosate in patients with tardive dyskinesia; assay type: in vivo, human; settings: for relief of TD involuntary movements: Case 2
Description: Case 1: A person had long-standing tardive dyskinesia induced by treatment of schizoaffective disorder with a variety of neuroleptics and mood stabilizers. Their TD was characterized by side to side movements of the jaw, grimacing movements, rocking of the trunk, and continual involuntary kicking, leg-crossing, and twisting movements of their legs and feet. At the time they presented for treatment of their TD they were treated for their mental illness with lamotrigine and quetiapine, a second-generation neuroleptic.
To test the hypothesis that the efficacy of acamprosate was related to adequate time above a threshold blood level the patient was asked to try taking 1332 mg of acamprosate once a day.
CASE 2: A person had been treated with acamprosate for several years for TD due to exposure to several neuroleptics for schizoaffective disorder. They were currently treated with lamotrigine and quetiapine for their mental illness, and was taking acamprosate 1032 mg+999 mg+1032 mg on a three times daily basis. […] To test the therapeutic threshold hypothesis the patient was asked to try 1032 mg of acamprosate once a day in the morning. […] They noted that when they got relief of their involuntary movements they also had less anxiety and agitation than when the movements were present.

[5] = test system: cultured rat hippocampus neurons; experiment: Organotypic hippocampal slice model of glutamate neurotoxicity; assay type: cell-based; settings: 200 μM calcium acamprosate 8 hr or 5 days, removed from medium for up to eight hours
Description: The study is designed to test whether pre-treatment with acamprosate can have long-term neuronal protective effects against glutamate neurotoxicity. The study uses an in vitro organotypic hippocampal slice model. The study assesses whether less than 24 hours per day of exposure to a sufficient level of acamprosate can offer 24-hour therapeutic actions in neuropsychiatric disorders. […] This supports, among other things, the therapeutic use of acamprosate in neuropsychiatric disorders because the latter are related to the effect of acamprosate to decrease glutamate effects at NMDA and metabotropic glutamate receptors.
Hippocampal slices derived from 8-day-old Sprague Dawley rats are plated and subsequently exposed to a relatively acute (8 hour) or more chronic (5 day) acamprosate treatment. The slices are then removed from the medium containing acamprosate and returned to control medium for either 1 or 8 hours. […] The slices are then placed in normal medium with propidium iodide for 24 hr and assessed for neurotoxicity/neuroprotection as described below. […]
Neurotoxicity/neuroprotection assessment: For the final medium change, the plates are moved into normal media containing propidium iodide (PI) added to each well for 24 hours. PI only penetrates cell membranes of damaged or potentially dying cells, binding to DNA to produce a bright, intensified red fluorescence at 630 nm. […]

[6] = test system: abnormal chewing movements; experiment: Rat model of tardive dyskinesia (haloperidol-induced abnormal chewing movements); assay type: in vivo; settings: steadily-maintained blood level; haloperidol-exposed rats
Description: Acamprosate is tested using a rat model of tardive dyskinesia looking at abnormal chewing movements produced in rats by exposing them for several weeks to haloperidol, a potent first-generation neuroleptic. […] Rats then are dosed with acamprosate in a way that matches the therapeutic blood level for no more than 12 hours out of 24, to confirm that this reduces the involuntary movements.

[7] = cited from earlier work

Structure (SMILES)	Average gastric retention time [1]	Maximum gastric retention time [1]	Minimum gastric retention time [1]	decrease of bioavailability by food [2]	abnormal movements [3]	relief of TD symptoms ([4]; Case 1, 666 mg three times a day)	relief of TD symptoms ([4]; Case 1, 999 mg three times a day)	anxiety and agitation ([4]; Case 1, 999 mg three times a day with perphenazine)	relief of TD symptoms ([4]; Case 1, 1332 mg once a day)	side effects ([4]; Case 1, 1332 mg once a day)	relief of TD involuntary movements ([4]; 999 mg three times a day)	relief of TD involuntary movements ([4]; 1032 mg morning plus second dose of 1032 mg 8 to 10 hours later)	relief of TD involuntary movements ([4]; 1032 mg once a day in the morning)	relief of TD involuntary movements ([4]; 1032 mg+999 mg+1032 mg three times daily)	protection of neurons from challenge with a toxic level of a glutamate agonist [5]	abnormal chewing movements [6]	solubility [7]	solubility in gastric juice [7]
O=C(O)CCCCC1CCSS1 (stereo not drawn) [alpha-lipoic acid]	2.8 h	5 h	1.5 h															
CC(=O)NCCCS(=O)(=O)O [acamprosate, calcium N-acetylhomotaurinate]				approximately 30%	reduce or eliminate the abnormal movements	partial relief of symptoms	complete relief of their TD	relief of anxiety and agitation	free of involuntary movements of TD	significant GI side effects of diarrhea and abdominal cramps	did not give full relief	complete relief of symptoms	free of movements in the morning and early afternoon but movements returned in the evening	completely relieved their involuntary movements of TD	persistent effect	reduce or eliminate the abnormal movements	high solubility	immediately and completely soluble

From patent US20150250746A1, “ACAMPROSATE FORMULATIONS, METHODS OF USING THE SAME, AND COMBINATIONS COMPRISING THE SAME” (Synchroneuron Inc., priority 2013, published 2015)
